Key:
[1] = system: human lung cancer strain NCI-H441; assay: cells; settings: NCI-H441, 96 h, read-out: NCI-H441 IC50 (nM)
[2] = target: GDP-bound NRAS wild-type protein (Homo sapiens, UniProt P01111); assay: Binding to NRAS by surface plasmon resonance (SPR), Single Cycle Kinetics; settings: SPR; KD ratio class
[3] = target: GDP-bound HRAS wild-type protein (Homo sapiens, UniProt P01112); assay: Binding to HRAS by surface plasmon resonance (SPR), Single Cycle Kinetics; settings: SPR; KD ratio class
Chain of GDP-bound HRAS wild-type protein (P01112 whole entry): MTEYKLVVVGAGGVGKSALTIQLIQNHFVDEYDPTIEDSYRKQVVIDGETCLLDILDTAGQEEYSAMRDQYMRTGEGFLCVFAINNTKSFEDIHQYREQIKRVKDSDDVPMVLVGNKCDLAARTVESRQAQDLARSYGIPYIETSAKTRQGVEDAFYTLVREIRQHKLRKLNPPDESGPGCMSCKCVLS

Chain of GDP-bound NRAS wild-type protein (P01111 whole entry): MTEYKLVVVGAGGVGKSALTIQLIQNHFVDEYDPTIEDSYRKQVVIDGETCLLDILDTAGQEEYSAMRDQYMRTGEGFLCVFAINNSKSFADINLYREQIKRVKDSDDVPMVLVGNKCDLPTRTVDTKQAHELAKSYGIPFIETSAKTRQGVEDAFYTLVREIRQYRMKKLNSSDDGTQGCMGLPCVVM

| Compound | IC50 [1] [nM] | NRAS/KRAS (ratio of KD value for GDP-bound NRAS wild-type protein to KD value for KRAS) [2] | HRAS/KRAS (ratio of KD value for GDP-bound HRAS wild-type protein to KD value for KRAS) [3] |
| --- | --- | --- | --- |
| CCCOC[C@H]1C(=O)N[C@@H]([C@@H](C)CC)C(=O)N(C)CC(=O)N(C)[C@H]2C/C=C\CCN(C2=O)[C@@H](Cc2ccc(C(F)(F)F)cc2)C(=O)N(C)CC(=O)N[C@@H](CCc2cc(F)c(C(F)(F)F)c(F)c2)C(=O)N2C[C@H](OCC)C[C@H]2C(=O)NC2(CC(C)(C)C2)C(=O)N(C)[C@@H](C2CCCC2)C(=O)N(C)[C@H](C(=O)N(C)CC)CC(=O)N1C [PP1572] | 3.6 | A (a compound having 10 or more and less than 20 is denoted as A) | A (a compound having 10 or more and less than 20 is denoted as A) |
| CCO[C@@H]1C[C@H]2C(=O)NC3(CCC3)C(=O)N(C)[C@@H](C3CCCC3)C(=O)N(C)[C@H](C(=O)N(C)CC)CC(=O)N(C)[C@@H](CC3CCCC3)C(=O)N[C@@H]([C@@H](C)CC)C(=O)N(C)CC(=O)N(C)[C@H]3C/C=C\CCN(C3=O)[C@@H](Cc3ccc(C(F)(F)F)cc3)C(=O)N(C)CC(=O)N[C@@H](CCc3ccc(C(F)(F)F)c(OC)c3)C(=O)N2C1 [PP1573] | 5.2 | A (a compound having 10 or more and less than 20 is denoted as A) | A (a compound having 10 or more and less than 20 is denoted as A) |
| CCCOC[C@H]1C(=O)N[C@@H]([C@@H](C)CC)C(=O)N(C)CC(=O)N(C)[C@H]2C/C=C\CCN(C2=O)[C@@H](Cc2ccc(C(F)(F)F)cc2)C(=O)N(C)CC(=O)N[C@@H](CCc2cc(F)c(C(F)(F)F)c(F)c2)C(=O)N2C[C@H](OCC)C[C@H]2C(=O)NC2(CC(C)(C)C2)C(=O)N(C)[C@@H](C2CCCC2)C(=O)N(C)[C@H](C(=O)N(CC)CC)CC(=O)N1C [PP1575] | 11.1 | B (a compound having 3 or more and less than 10 is denoted as B) | B (a compound having 3 or more and less than 10 is denoted as B) |
| CCCC[C@H]1C(=O)N[C@@H]([C@@H](C)CC)C(=O)N(C)CC(=O)N(C)[C@H]2C/C=C\CCN(C2=O)[C@@H](Cc2ccc(C(F)(F)F)cc2)C(=O)N(C)CC(=O)N[C@@H](CCc2cc(F)c(C(F)(F)F)c(F)c2)C(=O)N2C[C@H](OCC)C[C@H]2C(=O)NC2(CCC2)C(=O)N(C)[C@@H](C2CCCC2)C(=O)N(C)[C@H](C(=O)N(CC)CC)CC(=O)N1C [PP1576] | 7.6 | AA (a compound having 20 or more is denoted as AA) | A (a compound having 10 or more and less than 20 is denoted as A) |
| CCCOC[C@H]1C(=O)N[C@@H]([C@@H](C)CC)C(=O)N(C)CC(=O)N(C)[C@H]2C/C=C\CCN(C2=O)[C@@H](Cc2ccc(C)cc2)C(=O)N(C)CC(=O)N[C@@H](CCc2cc(F)c(C(F)(F)F)c(F)c2)C(=O)N2C[C@H](OCC)C[C@H]2C(=O)NC2(CC(C)(C)C2)C(=O)N(C)[C@@H](C2CCCC2)C(=O)N(C)[C@H](C(=O)N(C)CC)CC(=O)N1C [PP1577] | 6.7 | B (a compound having 3 or more and less than 10 is denoted as B) | B (a compound having 3 or more and less than 10 is denoted as B) |
| CCCOC[C@H]1C(=O)N[C@@H]([C@@H](C)CC)C(=O)N(C)CC(=O)N(C)[C@H]2C/C=C\CCN(C2=O)[C@@H](Cc2ccc(C)cc2)C(=O)N(C)CC(=O)N[C@@H](CCc2cc(F)c(C(F)(F)F)c(F)c2)C(=O)N2C[C@H](OCC)C[C@H]2C(=O)NC2(CC(C)(C)C2)C(=O)N(C)[C@@H](C2CCCC2)C(=O)N(C)[C@H](C(=O)N(CC)CC)CC(=O)N1C [PP1578] | 12.6 | A (a compound having 10 or more and less than 20 is denoted as A) | A (a compound having 10 or more and less than 20 is denoted as A) |
| CCO[C@@H]1C[C@H]2C(=O)NC3(CC(C)(C)C3)C(=O)N(C)[C@@H](C3CCCC3)C(=O)N(C)[C@H](C(=O)N(C)CC)CC(=O)N(C)[C@@H](CC)C(=O)N[C@@H]([C@@H](C)CC)C(=O)N(C)CC(=O)N(C)[C@H]3C/C=C\CCN(C3=O)[C@@H](Cc3ccc(C(F)(F)F)cc3)C(=O)N(C)CC(=O)N[C@@H](CCc3cc(F)c(C(F)(F)F)c(F)c3)C(=O)N2C1 [PP1579] | 4.1 | A (a compound having 10 or more and less than 20 is denoted as A) | B (a compound having 3 or more and less than 10 is denoted as B) |
| CCO[C@@H]1C[C@H]2C(=O)NC3(CC(C)(C)C3)C(=O)N(C)[C@@H](C3CCCC3)C(=O)N(C)[C@H](C(=O)N(CC)CC)CC(=O)N(C)[C@@H](CC)C(=O)N[C@@H]([C@@H](C)CC)C(=O)N(C)CC(=O)N(C)[C@H]3C/C=C\CCN(C3=O)[C@@H](Cc3ccc(C(F)(F)F)cc3)C(=O)N(C)CC(=O)N[C@@H](CCc3cc(F)c(C(F)(F)F)c(F)c3)C(=O)N2C1 [PP1580] | 9.7 | A (a compound having 10 or more and less than 20 is denoted as A) | A (a compound having 10 or more and less than 20 is denoted as A) |
| CCO[C@@H]1C[C@H]2C(=O)NC3(CCC3)C(=O)N(C)[C@@H](C3CCCC3)C(=O)N(C)[C@H](C3CCCCC3)CC(=O)N(C)[C@@H](COC)C(=O)N[C@@H]([C@@H](C)CC)C(=O)N(C)CC(=O)N(C)[C@H]3C/C=C\CCN(C3=O)[C@@H](Cc3ccc(C(F)(F)F)cc3)C(=O)N(C)CC(=O)N[C@@H](CCc3cc(F)c(C(F)(F)F)c(F)c3)C(=O)N2C1 [PP1584] | 66.4 | B (a compound having 3 or more and less than 10 is denoted as B) | B (a compound having 3 or more and less than 10 is denoted as B) |
| CCO[C@@H]1C[C@H]2C(=O)NC3(CC(C)(C)C3)C(=O)N(C)[C@@H](C3CCCC3)C(=O)N(C)[C@H](C(C)C)CC(=O)N(C)[C@@H](CC)C(=O)N[C@@H]([C@@H](C)CC)C(=O)N(C)CC(=O)N(C)[C@H]3C/C=C\CCN(C3=O)[C@@H](Cc3ccc(C(F)(F)F)cc3)C(=O)N(C)CC(=O)N[C@@H](CCc3cc(F)c(C(F)(F)F)c(F)c3)C(=O)N2C1 [PP1588] | 24.2 | B (a compound having 3 or more and less than 10 is denoted as B) | B (a compound having 3 or more and less than 10 is denoted as B) |
| CCO[C@@H]1C[C@H]2C(=O)NC3(CC(C)(C)C3)C(=O)N(C)[C@@H](C3CCCC3)C(=O)N(C)[C@@H](C(C)C)CC(=O)N(C)[C@@H](CC3CC3)C(=O)N[C@@H]([C@@H](C)CC)C(=O)N(C)CC(=O)N(C)[C@H]3C/C=C\CCN(C3=O)[C@@H](Cc3ccc(C(F)(F)F)cc3)C(=O)N(C)CC(=O)N[C@@H](CCc3cc(F)c(C(F)(F)F)c(F)c3)C(=O)N2C1 [PP1594] | 48.8 | A (a compound having 10 or more and less than 20 is denoted as A) | A (a compound having 10 or more and less than 20 is denoted as A) |
| CCO[C@@H]1C[C@H]2C(=O)NC3(CCC3)C(=O)N(C)[C@@H](C3CCCC3)C(=O)N(C)[C@H](C(C)C)CC(=O)N(C)[C@@H](CC)C(=O)N[C@@H]([C@@H](C)CC)C(=O)N(C)CC(=O)N(C)[C@H]3C/C=C\CCN(C3=O)[C@@H](CC3CCCCC3)C(=O)N(C)CC(=O)N[C@@H](CCc3cc(F)c(C(F)(F)F)c(F)c3)C(=O)N2C1 [PP1601] | 78.6 | B (a compound having 3 or more and less than 10 is denoted as B) | A (a compound having 10 or more and less than 20 is denoted as A) |
| CCO[C@@H]1C[C@H]2C(=O)NC3(CC(C)(C)C3)C(=O)N(C)[C@@H](C3CCCC3)C(=O)N(C)[C@H](C(C)C)CC(=O)N(C)[C@@H](CC)C(=O)N[C@@H]([C@@H](C)CC)C(=O)N(C)CC(=O)N(C)[C@H]3C/C=C\CCN(C3=O)[C@@H](CC3CCCCC3)C(=O)N(C)CC(=O)N[C@@H](CCc3cc(F)c(C(F)(F)F)c(F)c3)C(=O)N2C1 [PP1603] | 132 | B (a compound having 3 or more and less than 10 is denoted as B) | B (a compound having 3 or more and less than 10 is denoted as B) |
| CCO[C@@H]1C[C@H]2C(=O)NC3(CC(C)(C)C3)C(=O)N(C)[C@@H](C(CC)CC)C(=O)N3CCC[C@@H]3CC(=O)N(C)[C@@H](CC)C(=O)N[C@@H]([C@@H](C)CC)C(=O)N(C)CC(=O)N(C)[C@H]3C/C=C\CCN(C3=O)[C@@H](Cc3ccc(C(F)(F)F)cc3)C(=O)N(C)CC(=O)N[C@@H](CCc3cc(F)c(C(F)(F)F)c(F)c3)C(=O)N2C1 [PP1605] | 31.6 | A (a compound having 10 or more and less than 20 is denoted as A) | A (a compound having 10 or more and less than 20 is denoted as A) |
| CCO[C@@H]1C[C@H]2C(=O)NC3(CC(C)(C)C3)C(=O)N(C)[C@@H](C3CCCC3)C(=O)N3CCC[C@@H]3CC(=O)N(C)[C@@H](CC)C(=O)N[C@@H]([C@@H](C)CC)C(=O)N(C)CC(=O)N(C)[C@H]3C/C=C\CCN(C3=O)[C@@H](Cc3ccc(C(F)(F)F)cc3)C(=O)N(C)CC(=O)N[C@@H](CCc3cc(F)c(C(F)(F)F)c(F)c3)C(=O)N2C1 [PP1606] | 12.6 | B (a compound having 3 or more and less than 10 is denoted as B) | B (a compound having 3 or more and less than 10 is denoted as B) |
